Results published in US10738056B2 (Aduro BioTech, Inc., priority 2017, dated 2020).

Columns and labels:
[1] = biological target: Human cGAS amino acids 155-522 (Homo sapiens (Human), UniProt Q8N884); assay: cGAS biochemical activity assay (ATP remaining, Kinase-Glo Max luminescence); settings: human cGAS 155-522, ATP remaining (Kinase-Glo Max); read-out: cGAS IC50
[2] = system: cGAS/STING pathway in THP1 cells; assay: THP1 cell-based cGAS/STING pathway activity assay (IRF-3-linked luciferase reporter); settings: Homo sapiens, THP-1
In short: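 THP1 cells carrying an IRF-3-driven luciferase reporter were read across a range of compound concentrations, and IC50 values were derived from these concentration responses; the assay upper limit was 100 μM.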

Sequence of Human cGAS amino acids 155-522 (Q8N884 157-522): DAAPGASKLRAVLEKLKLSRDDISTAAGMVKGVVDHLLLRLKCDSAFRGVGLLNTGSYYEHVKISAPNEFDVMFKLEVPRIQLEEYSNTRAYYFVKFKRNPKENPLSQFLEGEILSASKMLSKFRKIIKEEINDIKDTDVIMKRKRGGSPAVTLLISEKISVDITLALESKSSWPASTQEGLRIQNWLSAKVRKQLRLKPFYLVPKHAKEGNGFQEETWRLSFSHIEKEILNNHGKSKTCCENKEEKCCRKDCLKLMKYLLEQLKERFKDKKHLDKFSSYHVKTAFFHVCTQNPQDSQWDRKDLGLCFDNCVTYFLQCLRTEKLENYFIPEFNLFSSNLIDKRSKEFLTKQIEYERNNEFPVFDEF

For `CCc1[nH]c2c(-c3ccccc3)c(C(F)(F)F)nn2c(=O)c1-c1nc2c(OC)cccc2o1` [Compound C1183, 5-ethyl-6-(4-methoxybenzo[d]oxazol-2-yl)-3-phenyl-2-(trifluoromethyl)pyrazolo[1,5-a]pyrimidin-7(4H)-one], the IC50 [1] was < 20 µM and the IC50 [2] was < 20 µM.

With `Cc1[nH]c2c(-c3ccccc3)c(C(F)(F)F)nn2c(=O)c1C(=O)Nc1ccn(C(C)C)n1` [Compound A1065, N-(1-isopropyl-1H-pyrazol-3-yl)-5-methyl-7-oxo-3-phenyl-2-(trifluoromethyl)-4,7-dihydropyrazolo[1,5-a]pyrimidine-6-carboxamide] the IC50 [1] was < 20 µM and the IC50 [2] was 20 to 100 µM.

For `COc1cc(C(=N)N)cc2oc(-c3c(C)[nH]c4c(-c5ccccc5)c(C(F)(F)F)nn4c3=O)nc12` [Compound C1141, 4-methoxy-2-(5-methyl-7-oxo-3-phenyl-2-(trifluoromethyl)-4,7-dihydropyrazolo[1,5-a]pyrimidin-6-yl)benzo[d]oxazole-6-carboximidamide], the IC50 [1] was < 20 µM and the IC50 [2] was > 100 µM.

In the case of `Cc1[nH]c2c(-c3ccccc3)c(C(F)(F)F)nn2c(=O)c1-c1nnc(NC(=N)N)o1` [Compound D1077, 1-(5-(5-methyl-7-oxo-3-phenyl-2-(trifluoromethyl)-4,7-dihydropyrazolo[1,5-a]pyrimidin-6-yl)-1,3,4-oxadiazol-2-yl)guanidine], the IC50 [1] is reported as < 20 µM and the IC50 [2] is reported as > 100 µM.

`COc1cccc2oc(-c3c(C(=O)O)[nH]c4c(-c5ccccc5)c(C(F)(F)F)nn4c3=O)nc12` [Compound C1131, 6-(4-methoxybenzo[d]oxazol-2-yl)-7-oxo-3-phenyl-2-(trifluoromethyl)-4,7-dihydropyrazolo[1,5-a]pyrimidine-5-carboxylic acid] was tested, and the IC50 [1] was < 20 µM and the IC50 [2] was > 100 µM.

In the case of `COc1cccc2oc(-c3c(N)[nH]c4c(-c5ccccc5)c(C(F)(F)F)nn4c3=O)nc12` [Compound C1085, 5-amino-6-(4-methoxybenzo[d]oxazol-2-yl)-3-phenyl-2-(trifluoromethyl)pyrazolo[1,5-a]pyrimidin-7(4H)-one], the IC50 [1] is reported as < 20 µM and the IC50 [2] is reported as > 100 µM.

With `Cc1[nH]c2c(-c3ccccc3)c(C#N)nn2c(=O)c1-c1nc2c(N(C)C)cccc2o1` [Compound C1272, 6-(4-(dimethylamino)benzo[d]oxazol-2-yl)-5-methyl-7-oxo-3-phenyl-4,7-dihydropyrazolo[1,5-a]pyrimidine-2-carbonitrile] the IC50 [1] was < 20 µM and the IC50 [2] was < 20 µM.

`Cc1[nH]c2c(-c3ccccc3)c(C(F)(F)F)nn2c(=O)c1-c1nc2c(S(C)(=O)=O)cccc2o1` [Compound C1054, 5-methyl-6-(4-(methylsulfonyl)benzo[d]oxazol-2-yl)-3-phenyl-2-(trifluoromethyl)pyrazolo[1,5-a]pyrimidin-7(4H)-one] was tested, and the IC50 [1] was 20 to 250 µM and the IC50 [2] was > 100 µM.

In the case of `Cc1[nH]c2c(-c3ccccc3)c(C#N)nn2c(=O)c1-c1nc2ccc(N)cc2o1` [Compound C1193, 6-(6-aminobenzo[d]oxazol-2-yl)-5-methyl-7-oxo-3-phenyl-4,7-dihydropyrazolo[1,5-a]pyrimidine-2-carbonitrile], the IC50 [1] is reported as < 20 µM and the IC50 [2] is reported as > 100 µM.

For `Cc1[nH]c2c(-c3ccccc3)c(C(F)(F)F)nn2c(=O)c1-c1nnc([C@@H]2CCCOC2)o1` [Compound D1026, (R)-5-methyl-3-phenyl-6-(5-(tetrahydro-2H-pyran-3-yl)-1,3,4-oxadiazol-2-yl)-2-(trifluoromethyl)pyrazolo[1,5-a]pyrimidin-7(4H)-one], the IC50 [1] was < 20 µM and the IC50 [2] was > 100 µM.

For `COC1(c2nnc(-c3c(C)[nH]c4c(-c5ccccc5)c(C(F)(F)F)nn4c3=O)o2)CCCC1` [Compound D1055, 6-(5-(1-methoxycyclopentyl)-1,3,4-oxadiazol-2-yl)-5-methyl-3-phenyl-2-(trifluoromethyl)pyrazolo[1,5-a]pyrimidin-7(4H)-one], the IC50 [1] was < 20 µM and the IC50 [2] was 20 to 100 µM.

In the case of `Cc1[nH]c2c(-c3ccccc3)c(C(F)(F)F)nn2c(=O)c1C(=O)NS(=O)(=O)c1ccccc1Cl` [Compound A1127, N-((2-chlorophenyl)sulfonyl)-5-methyl-7-oxo-3-phenyl-2-(trifluoromethyl)-4,7-dihydropyrazolo[1,5-a]pyrimidine-6-carboxamide], the IC50 [1] is reported as < 20 µM and the IC50 [2] is reported as 20 to 100 µM.

In the case of `Cc1[nH]c2c(-c3ccccc3)c(C(F)(F)F)nn2c(=O)c1C(=O)Nc1ccccc1N` [Compound A1006, N-(2-aminophenyl)-5-methyl-7-oxo-3-phenyl-2-(trifluoromethyl)-4,7-dihydropyrazolo[1,5-a]pyrimidine-6-carboxamide], the IC50 [1] is reported as < 20 µM and the IC50 [2] is reported as > 100 µM.

`COc1cccc2oc(-c3c(COCc4cnc[nH]4)[nH]c4c(-c5ccccc5)c(C(F)(F)F)nn4c3=O)nc12` [Compound C1182, 5-(((1H-imidazol-5-yl)methoxy)methyl)-6-(4-methoxybenzo[d]oxazol-2-yl)-3-phenyl-2-(trifluoromethyl)pyrazolo[1,5-a]pyrimidin-7(4H)-one] was tested, and the IC50 [1] was < 20 µM and the IC50 [2] was > 100 µM.

With `Cc1[nH]c2c(-c3ccccc3)c(C(F)(F)F)nn2c(=O)c1-c1nc2c(OC(C)C)cccc2o1` [Compound C1039, 6-(4-isopropoxybenzo[d]oxazol-2-yl)-5-methyl-3-phenyl-2-(trifluoromethyl)pyrazolo[1,5-a]pyrimidin-7(4H)-one] the IC50 [1] was < 20 µM and the IC50 [2] was > 100 µM.

With `COc1cc(CO)cc2oc(-c3c(C)[nH]c4c(-c5ccccc5)c(C(F)(F)F)nn4c3=O)nc12` [Compound C1166, 6-(6-(hydroxymethyl)-4-methoxybenzo[d]oxazol-2-yl)-5-methyl-3-phenyl-2-(trifluoromethyl)pyrazolo[1,5-a]pyrimidin-7(4H)-one] the IC50 [1] was < 20 µM and the IC50 [2] was 20 to 100 µM.

`Cc1cnc(NC(=O)c2c(C)[nH]c3c(-c4ccccc4)c(C(F)(F)F)nn3c2=O)o1` [Compound A1075, 5-methyl-N-(5-methyloxazol-2-yl)-7-oxo-3-phenyl-2-(trifluoromethyl)-4,7-dihydropyrazolo[1,5-a]pyrimidine-6-carboxamide] was tested, and the IC50 [1] was < 20 µM and the IC50 [2] was 20 to 100 µM.

In the case of `Cc1[nH]c2c(-c3ccccc3)c(C(F)(F)F)nn2c(=O)c1-c1ncco1` [Compound C1170, 5-methyl-6-(oxazol-2-yl)-3-phenyl-2-(trifluoromethyl)pyrazolo[1,5-a]pyrimidin-7(4H)-one], the IC50 [1] is reported as < 20 µM and the IC50 [2] is reported as > 100 µM.

`COc1cccc2oc(-c3c(C(=O)O)[nH]c4c(-c5ccccc5)c(C#N)nn4c3=O)nc12` [Compound C1249, 2-cyano-6-(4-methoxybenzo[d]oxazol-2-yl)-7-oxo-3-phenyl-4,7-dihydropyrazolo[1,5-a]pyrimidine-5-carboxylic acid] was tested, and the IC50 [1] was < 20 µM and the IC50 [2] was > 100 µM.

For `Cc1[nH]c2c(-c3ccccc3)c(C(F)(F)F)nn2c(=O)c1C1=N[C@@H](C(=O)O)[C@H](C)O1` [Compound C1213, (4R,5S)-5-methyl-2-(5-methyl-7-oxo-3-phenyl-2-(trifluoromethyl)-4,7-dihydropyrazolo[1,5-a]pyrimidin-6-yl)-4,5-dihydrooxazole-4-carboxylic acid], the IC50 [1] was < 20 µM and the IC50 [2] was 20 to 100 µM.

In the case of `Cc1[nH]c2c(-c3ccccc3)c(C(F)(F)F)nn2c(=O)c1-c1nnc(C2(C)CCCOC2)o1` (centres unmarked) [Compound D1051, 5-methyl-6-(5-(3-methyltetrahydro-2H-pyran-3-yl)-1,3,4-oxadiazol-2-yl)-3-phenyl-2-(trifluoromethyl)pyrazolo[1,5-a]pyrimidin-7(4H)-one], the IC50 [1] is reported as 20 to 250 µM and the IC50 [2] is reported as > 100 µM.

With `COc1nccc2oc(-c3c(C)[nH]c4c(-c5ccccc5)c(C(F)(F)F)nn4c3=O)nc12` [Compound C1037, 6-(4-methoxyoxazolo[4,5-c]pyridin-2-yl)-5-methyl-3-phenyl-2-(trifluoromethyl)pyrazolo[1,5-a]pyrimidin-7(4H)-one] the IC50 [1] was < 20 µM and the IC50 [2] was < 20 µM.

`COCc1[nH]c2c(-c3ccccc3)c(C#N)nn2c(=O)c1-c1nc2c(OC)nccc2o1` [Compound C1246, 5-(methoxymethyl)-6-(4-methoxyoxazolo[4,5-c]pyridin-2-yl)-7-oxo-3-phenyl-4,7-dihydropyrazolo[1,5-a]pyrimidine-2-carbonitrile] was tested, and the IC50 [1] was < 20 µM and the IC50 [2] was > 100 µM.

`COc1cccc2oc(-c3c(N4CCOCC4)[nH]c4c(-c5ccccc5)c(C(F)(F)F)nn4c3=O)nc12` [Compound C1258, 6-(4-methoxybenzo[d]oxazol-2-yl)-5-morpholino-3-phenyl-2-(trifluoromethyl)pyrazolo[1,5-a]pyrimidin-7(4H)-one] was tested, and the IC50 [1] was < 20 µM and the IC50 [2] was < 20 µM.

For `Cc1[nH]c2c(-c3ccccc3)c(C(F)(F)F)nn2c(=O)c1-c1nc2c(OCC(N)=O)cccc2o1` [Compound C1122, 2-((2-(5-methyl-7-oxo-3-phenyl-2-(trifluoromethyl)-4,7-dihydropyrazolo[1,5-a]pyrimidin-6-yl)benzo[d]oxazol-4-yl)oxy)acetamide], the IC50 [1] was < 20 µM and the IC50 [2] was 20 to 100 µM.

For `Cc1[nH]c2c(-c3ccccc3)c(C(F)(F)F)nn2c(=O)c1C(=O)Nc1cccc2c1OCC2` [Compound A1101, N-(2,3-dihydrobenzofuran-7-yl)-5-methyl-7-oxo-3-phenyl-2-(trifluoromethyl)-4,7-dihydropyrazolo[1,5-a]pyrimidine-6-carboxamide], the IC50 [1] was < 20 µM and the IC50 [2] was < 20 µM.

For `COc1c(C)ccc2oc(-c3c(C)[nH]c4c(-c5ccccc5)c(C(F)(F)F)nn4c3=O)nc12` [Compound C1093, 6-(4-methoxy-5-methylbenzo[d]oxazol-2-yl)-5-methyl-3-phenyl-2-(trifluoromethyl)pyrazolo[1,5-a]pyrimidin-7(4H)-one], the IC50 [1] was < 20 µM and the IC50 [2] was 20 to 100 µM.

In the case of `Cc1[nH]c2c(-c3ccccc3)c(C(F)(F)F)nn2c(=O)c1C(=O)Nc1cccc2c1OC(F)(F)O2` [Compound A1062, N-(2,2-difluorobenzo[d][1,3]dioxol-4-yl)-5-methyl-7-oxo-3-phenyl-2-(trifluoromethyl)-4,7-dihydropyrazolo[1,5-a]pyrimidine-6-carboxamide], the IC50 [1] is reported as < 20 µM and the IC50 [2] is reported as < 20 µM.
